# Experimental data published in US11065211B2, “Isoxylitones mediated neurogenesis” (priority 2018, dated 2021).
# Assays:
# Assay in all cases: Immunocytochemical analysis of primary cultured and cocultured cells
# Format in all cases: cell-based, rat
# Calretinin (CR) = settings: vs control
# Protocol: (§1) Immuncytochemical analysis was performed for differentiation studies of primary cultures of cortex, hippocampus, and co-cultures (CoCul) in absence of growth factors and serum free medium.
# (§2) The cultured cells of cortex, hippocampus, and co-cultured cells in the presence of serum free medium were plated in chamber slides at the density of 20,000 cells/mL and treated with a proliferative dose of isoxylitones, i.e., 150 μg/ml for 24 hrs at 37° C. and 5% CO2 to let the cells adhere on the bottom surface of the slide. Following incubation, the media was refreshed and the cells were immunolabelled as mentioned in table #2.1.
# (§3) For immunostaining, the media was removed; cells were washed gently with 1 mL of 1×PBS. After removing 1×PBS, 4% formaldehyde was added and the slides were incubated for 20 minutes at room temperature to fix the cells. The fixative was aspirated followed by a three times rinse with 1 mL of 1×PBS. After washing, the blocking buffer (BSA having 3% normal goat serum, 0.2% tween-20 and 0.3% of Triton X-100 in 10×PBS) was added and the slides were kept at room temperature for an hour. Then, the cells were washed gently three times with 1×PBS on an orbital shaker and 300 μL of primary antibodies (dilution mentioned in table #2.1) were added to each slide and incubated overnight at 4° C. Following incubation, the cells were washed gently in PBS three times (5 minutes each wash) on an orbital shaker. Next secondary antibody (Table #2.1) in 3% normal serum or BSA was added to their respective chamber and incubated for 1 hour at room temperature in dark. Following incubation, the slides were washed with 1×PBS.
# (§4) Diluted Dapi (1:1000) was added into each slide to counter stain the nucleus. After rinsing twice with distilled water, images were captured using the Nikon 90i with fluorescence microscopes (Nikon. Tokyo, Japan) equipped with Nuance Software version 3.1 (Caliper Life Sciences. Hopkinton, Mass.). The magnification used was 20×.
# (§5) For quantification studies, ImageJ software (National Institutes of Health, USA) was used to digitalized the images. This software provides multiple imaging system data comparisons taking densitometry in consideration. Briefly, 5 different regions were randomly selected and the fluorescence intensity was quantified in cells and the background intensity of each image was subtracted from it, the residual particles were measured to represent expression of relevant protein. Cells or fields were counted and percentage intensity of protein expression was measured and means percentage intensity was calculated. Data from three individual experiments was obtained and expressed as means±SEM.
# GFAP = settings: 24 h
# Protocol: as §1, §2, §3, §4, §5
# Neuro D1 = tested on: Neuro D1
# Protocol: as §1, §2, §3, §4, §5
# nestin = settings: 24 h
# Protocol: as §1, §2, §3, §4, §5
# neurogenin = tested on: neurogenin
# Protocol: as §1, §2, §3, §4, §5
# tubulin = tested on: tubulin
# Protocol: as §1, §2, §3, §4, §5
smiles,measurement,setting,value
CC(=O)C=C1C=C(C)CC(C)(C)C1 (mixture of isomers) [isoxylitones],Calretinin (CR) fluorescent intensity,"Calretinin (CR); (A) cortical and (B) CoCul-CTX cells, FIG. 14",prominent increase in the fluorescent intensity of calretinin
same,CR expression (immunoreactivity),"Calretinin (CR); (A) hippocampal and (B) CoCul-HP cells, FIG. 15",significant increase in CR expression
same,GFAP expression (immunofluorescence),"GFAP; (A) cortical and (B) CoCul-CTX cells, vs vehicle control, FIG. 10",prominent increase of GFAP expression
same,"GFAP immunochemistry, intensity of images","GFAP; (A) hippocampal and (B) CoCul-HP cells, 150 μg/ml, vs control, FIG. 11",No significant difference in intensity
same,Neuro D1 protein expression,"Neuro D1; (A) cortical and (B) CoCul-CTX cells, 150 μg/ml, 24 h, vs control, FIG. 16",significant upregulation
same,Neuro D1 immunofluorescence intensity,"Neuro D1; (A) hippocampal and (B) CoCul-HP cells, FIG. 17",significant up-regulation in immunofluorescence of NeuroD1 intensity
same,nestin expression (immunofluorescence),"nestin; (A) CTX and (B) CoCul-CTX cells, vs control, FIG. 9",no significant difference
same,nestin expression (immunofluorescence),"nestin; (A) hippocampal and (B) CoCul-HP cells, 150 μg/ml, vs untreated control, FIG. 8",up-regulation of nestin protein expression
same,neurogenin expression (immunostaining),"neurogenin; (A) cortical and (B) CoCul-CTX cells, FIG. 18",prominent neurogenin expression
same,neurogenin expression (immunostaining),"neurogenin; (A) hippocampal and (B) CoCul-HP cells, 24 h, vs control P<0.001, FIG. 19",elevated neurogenin expression
same,tubulin expression (immunofluorescence),"tubulin; (A) cortical and (B) CoCul-CTX cells, P<0.01, FIG. 12",significant upregulation of tubulin
same,tubulin expression (immunofluorescence),"tubulin; (A) hippocampal and (B) CoCul-HP cells, 150 μg/ml, 24 h, vs control, FIG. 13",significant upregulation
